Source: patent US20170073337A1, “DIHYDROTHIAZINE AND DIHYDROOXAZINE DERIVATIVES HAVING BACE1 INHIBITORY ACTIVITY” (Shionogi & Co., Ltd., priority 2014, published 2017)
In brackets after ≈: the same amount, converted by molar mass. Read-outs that look alike come from different tables or passages of the source.

Key:
Recombinant human BACE1 = target: T1, Recombinant human BACE1 (Homo sapiens, UniProt P56817); assay: Assay of BACE1 inhibitory activity: 384-well; type: biochemical; conditions: Assay format 384-well
T1 construct: purchased R&D Systems
Experimental: 5 μL of substrate peptide solution (Biotin-XSEVNLDAEFRHDSGC-Eu: X=ε-amino-n-capronic acid, Eu=Europium eryplate) was added to each well of 384-well plate (a black plate: Corning), and after addition of 0.1 μl of the compound of the present invention (DMSO solution) and 5 μl of Recombinant human BACE1 (R&D Systems), the reaction mixture was incubated at 25° C. for 2 hours. The substrate peptide was synthesized by reacting Cryptate TBPCOOH mono SMP (CIS bio international) with Biotin-XSEVNLDAEFRHDSGC (Peptide Institute, Inc.).
After the incubation for reaction, 10 μl of 8.0 μg/ml Streptavidin-XL665 (CIS bio International) dissolved in phosphate buffer (150 mmol/L K2HPO4-KH2PO4, pH 7.0, 0.008% Triton X-100, 0.8 mol/L KF) was added to each well and left stand at 25° C. for 30 minutes.

[1] = tested on: Aβ production in neuroblastoma SH-SY5Y cells (SH/APPwt); assay: β-amyloid (Aβ) production inhibitory effect in cell: 384-well; type: cell-based; conditions: Homo sapiens, Assay format 384-well
Experimental: Neuroblastoma SH-SY5Y cells (SH/APPwt) with human wild-type β-APT excessively expressed therein were prepared at 4×10^5 cells/mL, and 50 μl portions thereof were inoculated into each well of a 384-well culture plate (Corning) added 0.5 μl of the test compound of the present invention (DMSO solution). The final DMSO concentration was 1%, and the amount of the cell culture was 50 μl. After the incubation was performed for 21 hours from the cell seeding, 5 μl of the culture supernatant was collected from each fraction. The amount of the Aβ in each fraction was measured.
The Aβ amount was measured as follows. 5 μl of a homogeneous time resolved fluoresrenee (HTRF) measurement reagent (Amyloid β1-40 peptide; CIS bio international) and 5 μl of the culture supernatant were put into a 384′well plate (a black plate: Corning) and mixed with each other, and then left standing overnight at 4° C. while the light was shielded. Then, the fluorescence intensity (620 nm and 665 nm) was measured with EnViston (Perkin Elmer life sciences).

CYP1A2 = target: T2, CYP1A2 (Homo sapiens, UniProt P05177); assay: CYP inhibition test (CYP1A2); type: in vitro ADME; conditions: pooled human liver microsomes; 7-ethoxyresorufin O-deethylation
T2 construct: The commercially available pooled human liver microsomes are used as an enzyme resource; from tissue; host or cells: pooled human liver microsomes
T2 sequence (P05177 1-516): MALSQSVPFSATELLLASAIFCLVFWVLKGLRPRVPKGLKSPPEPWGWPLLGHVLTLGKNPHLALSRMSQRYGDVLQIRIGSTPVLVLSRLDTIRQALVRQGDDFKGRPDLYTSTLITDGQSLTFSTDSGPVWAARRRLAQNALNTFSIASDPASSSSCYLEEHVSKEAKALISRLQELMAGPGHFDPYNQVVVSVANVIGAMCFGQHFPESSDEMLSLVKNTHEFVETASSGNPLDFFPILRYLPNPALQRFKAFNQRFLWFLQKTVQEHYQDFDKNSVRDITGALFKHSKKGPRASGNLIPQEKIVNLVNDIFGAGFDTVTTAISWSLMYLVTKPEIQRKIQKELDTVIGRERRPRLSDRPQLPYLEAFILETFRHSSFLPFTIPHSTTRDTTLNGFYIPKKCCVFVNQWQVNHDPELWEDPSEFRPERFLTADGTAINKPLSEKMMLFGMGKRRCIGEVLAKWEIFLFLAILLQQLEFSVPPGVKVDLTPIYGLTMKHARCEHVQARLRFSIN
Excerpt: (§1) The CYP inhibition test is a test to assess the inhibitory effect of a compound of the present invention towards typical substrate metabolism reactions on CYP enzymes in human liver microsomes. The marker reactions on human main five CYP enzymes (CYP1A2, 2C9, 2C19, 2D6, and 3A4) are used as follows: 7-ethoxyresorufin O-deethylation (CYP1A2), tolbutamide methyl-hydroxylation (CYP2C9), mephenytoin 4′-hydroxylation (CYP2C19), dextromethorphan O-demethylation (CYP2D6), and terfenadine hydroxylation (CYP3A4). The commercially available pooled human liver microsomes are used as an enzyme resource.
(§2) The reaction conditions were as follows: substrate, 0.5 μmol/L ethoxyresorufin (CYP1A2), 100 μmol/L tolbutamide (CYP2C9), 50 μmol/L, S-mephenytoin (CYP2C19), 5 μmol/L dextromethorphan (CYP2D6), 1 μmol/L terfenadine (CYP3A4): reaction time, 15 minutes: reaction temperature, 37° C.; enzyme, pooled human liver microsomes 0.2 mg protein/mL; concentrations of the compound of the present invention, 1, 5, 10, 20 μmol/L (four points).
(§3) Five kinds of substrates, human liver microsomes, and a compound solution of the present invention in […] Hepes buffer were added to a 96-well plate at the composition as described above as a reaction solution. NADPH as a cofactor was added to this 96-well plate in order to initiate metabolism reactions. After the incubation at 37° C.for […], a methanol/acetonitrile=1/1 (v/v) solution was added to stop the reaction. After the centrifugation at 3000 rpm for 15 minutes, resorufin (CYP1A2 metabolite) in the supernatant was quantified by a fluorescent plate reader, and hydroxytolbutamide (CYP2C9 metabolite), 4′-hydroxymephenytoin (CYP2C19 metabolite), dextrorphan (CYP2D6 metabolite), and terfenadine alcohol metabolite (CYP3A4 metabolite) in the supernatant were quantified by LC/MS/MS.
(§4) The sample adding DMSO to a reaction system instead of compound of the present invention solution was adopted as a control (100%) because DMSO was used as a solvent to dissolve a compound of the present invention. Remaining activity (%) was calculated at each concentration of a compound of the present invention, and IC50 value was calculated by reverse presumption by a logistic model using a concentration and an inhibition rate.

CYP2C19 = target: T3, CYP2C19 (Homo sapiens, UniProt P33261); assay: CYP inhibition test (CYP2C19); type: in vitro ADME; conditions: pooled human liver microsomes; mephenytoin 4′-hydroxylation
T3 construct: The commercially available pooled human liver microsomes are used as an enzyme resource; from tissue; host or cells: pooled human liver microsomes
Excerpt: as §1, §2, §3, §4

Solubility test = type: physicochemical; conditions: for solubility kinetic at 1 h: kinetic from dmso stock; for solubility kinetic at 16 h: solubility in JP 2nd fluid B, 1% DMSO, *2: shaken for 1 hour at room temperature
Experimental: A 10 mmol/L solution of the compound was prepared with DMSO, and 2 μL of the compound of the present invention solution was added, respectively, to 198 μL of JP 1st fluid (water was added to 2.0 g of sodium chloride and 7.0 ml, of hydrochloric acid to reach 1000 mL) and JP 2nd fluid (See Table 4). The mixture was left standing for 16 hours at 25° C. or shaken for 1 hour at ruom temperature, and the mixture was vacuum-filtered. The […] was ten or one hundred-fold diluted with metbanol/water=1/1 (v/v) or MeCN/MeOH/H2O(=1/1/2), and the compound concent ration in the filtrate was measured with LC/MS or solid phase extraction (SPE)/MS by the absolute calibration method.

[2] = target: T4, human ether-a-go-go related gene (hERG) channel (Homo sapiens, UniProt Q12809); assay: hERG test; type: cell-based; conditions: % inhibition of IKr tail peak current at 3 uM; CHO cells expressing hERG
T4 construct: expressed in transfected cells; host or cells: CHO cells
Excerpt: For the purpose of assessing risk of an electrocardiogram QT interval prolongation, effects on delayed rectifier K+ current (IKr), which plays an important role in the ventricular repolarization process of the compound of the present invention, was studied using CHO cells expressing human ether-a-go-go related gene (hERG) channel.
A cell was retained at a membrane potential of […] by whole cell patch clamp method using an automated patch clamp system (QPatch:Sophion Bioscience A/S). After application of leak potential at −50 mV, IKr induced by depolarization pulse stimulation at +20 mV for 2 seconds and, further, repolarization pulse stimulation at −50 mV for 2 seconds was recorded.

CYP2C9 = target: T5, CYP2C9 (Homo sapiens, UniProt P11712); assay: CYP inhibition test (CYP2C9); type: in vitro ADME; conditions: pooled human liver microsomes; tolbutamide methyl-hydroxylation
T5 construct: The commercially available pooled human liver microsomes are used as an enzyme resource; from tissue; host or cells: pooled human liver microsomes
Excerpt: as §1, §2, §3, §4

CYP3A4 = target: T6, CYP3A4 (Homo sapiens, UniProt P08684); assay: CYP inhibition test (CYP3A4); type: in vitro ADME; conditions: pooled human liver microsomes; terfenadine hydroxylation
T6 construct: The commercially available pooled human liver microsomes are used as an enzyme resource; from tissue; host or cells: pooled human liver microsomes
Excerpt: as §1, §2, §3, §4

CYP2D6 = target: T7, CYP2D6 (Homo sapiens, UniProt P10635); assay: CYP inhibition test (CYP2D6); type: in vitro ADME; conditions: pooled human liver microsomes; dextromethorphan O-demethylation
T7 construct: The commercially available pooled human liver microsomes are used as an enzyme resource; from tissue; host or cells: pooled human liver microsomes
Excerpt: as §1, §2, §3, §4

Metabolic stability test = type: in vitro ADME; conditions: human liver microsomes, 37° C., 30 minutes, NADPH
Experimental: Using a commercially available pooled human liver microsomes, a compound of the present invention was reacted for a constant time, a remaining rate was calculated by comparing a reacted sample and an unreacted sample, thereby, a degree of metabolism in liver was assessed.
A reaction was performed (oxidative reaction) at 37° C. for 0 minute or 30 minutes in the presence of 1 mmol/L NADPH in 0.2 mL of a buffer (60 mmol/L Tris-HCl pH 7.4, 150 mmol/L potassium chloride, 10 mmol/L magnesium chloride) containing 0.5 mg protein/mL of human liver microsomes. After the reaction, 50 μL of the reaction solution was added to 100 μL of a methanol/acetonltrile=1/1 (v/v), mixed and centrifuged at 3000 rpm for 15 minutes. The compound of the present invention in the supernatant was quantified by LC/MS/MS or solid phase extraction (SPE)/MS, and a remaining amount of the compound of the present invention after the reaction area calculated, letting a compound amount at 0 minute reaction time to be 100%.

[3] = JP 1st fluid, pH 1.2, simulated gastric fluid, read-out: JP1
[4] = JP 2nd fluid B, pH 6.8, aqueous buffer, read-out: JP2_μM

T4 sequence (Q12809 whole entry): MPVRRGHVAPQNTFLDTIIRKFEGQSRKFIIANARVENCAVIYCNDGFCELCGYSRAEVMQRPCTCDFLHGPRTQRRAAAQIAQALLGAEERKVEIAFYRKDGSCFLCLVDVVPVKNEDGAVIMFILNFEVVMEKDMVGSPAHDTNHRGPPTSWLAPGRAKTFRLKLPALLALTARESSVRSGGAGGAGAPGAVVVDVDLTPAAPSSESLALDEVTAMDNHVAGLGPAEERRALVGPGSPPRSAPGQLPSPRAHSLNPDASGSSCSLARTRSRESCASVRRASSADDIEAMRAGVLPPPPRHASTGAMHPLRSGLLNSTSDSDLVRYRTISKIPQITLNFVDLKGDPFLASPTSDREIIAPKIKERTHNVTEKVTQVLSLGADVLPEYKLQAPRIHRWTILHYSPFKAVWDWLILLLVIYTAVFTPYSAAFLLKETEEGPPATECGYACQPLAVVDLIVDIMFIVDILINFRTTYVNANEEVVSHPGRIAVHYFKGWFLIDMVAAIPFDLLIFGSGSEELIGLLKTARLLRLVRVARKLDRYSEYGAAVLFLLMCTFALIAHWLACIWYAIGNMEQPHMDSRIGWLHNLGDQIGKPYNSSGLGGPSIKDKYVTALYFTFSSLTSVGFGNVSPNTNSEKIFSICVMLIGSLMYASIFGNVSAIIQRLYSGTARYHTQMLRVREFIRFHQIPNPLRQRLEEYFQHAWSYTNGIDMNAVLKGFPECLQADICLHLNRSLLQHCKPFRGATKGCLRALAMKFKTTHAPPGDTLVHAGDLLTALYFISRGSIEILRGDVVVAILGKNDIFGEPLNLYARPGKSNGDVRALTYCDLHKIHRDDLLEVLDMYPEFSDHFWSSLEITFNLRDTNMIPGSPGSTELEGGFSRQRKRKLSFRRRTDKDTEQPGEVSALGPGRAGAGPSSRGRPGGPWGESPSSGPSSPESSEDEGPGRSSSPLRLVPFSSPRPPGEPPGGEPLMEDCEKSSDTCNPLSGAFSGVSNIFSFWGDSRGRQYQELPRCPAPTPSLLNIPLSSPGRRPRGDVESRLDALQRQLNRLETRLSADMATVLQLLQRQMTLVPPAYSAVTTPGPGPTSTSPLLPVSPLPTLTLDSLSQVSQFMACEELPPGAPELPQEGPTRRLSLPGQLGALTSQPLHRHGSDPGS
T5 sequence (P11712 whole entry): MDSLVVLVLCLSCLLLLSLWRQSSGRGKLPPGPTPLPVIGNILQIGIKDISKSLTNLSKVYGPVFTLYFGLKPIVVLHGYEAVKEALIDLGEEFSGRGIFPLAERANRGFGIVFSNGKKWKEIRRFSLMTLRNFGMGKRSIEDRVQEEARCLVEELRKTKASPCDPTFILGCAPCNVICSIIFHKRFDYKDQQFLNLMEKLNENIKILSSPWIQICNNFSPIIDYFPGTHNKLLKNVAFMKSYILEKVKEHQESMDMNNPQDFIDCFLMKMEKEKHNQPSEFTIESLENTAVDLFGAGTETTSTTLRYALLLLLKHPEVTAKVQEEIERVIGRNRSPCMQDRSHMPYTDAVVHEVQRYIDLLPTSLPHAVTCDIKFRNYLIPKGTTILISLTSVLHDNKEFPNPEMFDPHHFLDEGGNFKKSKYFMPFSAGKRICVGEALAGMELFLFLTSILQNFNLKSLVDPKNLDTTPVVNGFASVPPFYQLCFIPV
T3 sequence (P33261 whole entry): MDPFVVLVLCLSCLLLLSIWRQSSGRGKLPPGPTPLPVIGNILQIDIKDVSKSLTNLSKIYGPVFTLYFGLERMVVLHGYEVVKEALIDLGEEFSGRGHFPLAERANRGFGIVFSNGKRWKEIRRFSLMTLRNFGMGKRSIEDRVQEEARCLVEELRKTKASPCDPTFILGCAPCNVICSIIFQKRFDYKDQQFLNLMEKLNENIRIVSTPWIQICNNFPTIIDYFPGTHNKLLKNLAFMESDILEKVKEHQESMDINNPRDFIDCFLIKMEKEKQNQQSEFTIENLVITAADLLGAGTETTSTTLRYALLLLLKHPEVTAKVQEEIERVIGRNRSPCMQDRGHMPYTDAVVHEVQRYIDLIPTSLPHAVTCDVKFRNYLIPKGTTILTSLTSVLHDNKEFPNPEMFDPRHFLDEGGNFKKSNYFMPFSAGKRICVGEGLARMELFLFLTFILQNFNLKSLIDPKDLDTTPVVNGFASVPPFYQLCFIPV
T1 sequence (P56817 46-501): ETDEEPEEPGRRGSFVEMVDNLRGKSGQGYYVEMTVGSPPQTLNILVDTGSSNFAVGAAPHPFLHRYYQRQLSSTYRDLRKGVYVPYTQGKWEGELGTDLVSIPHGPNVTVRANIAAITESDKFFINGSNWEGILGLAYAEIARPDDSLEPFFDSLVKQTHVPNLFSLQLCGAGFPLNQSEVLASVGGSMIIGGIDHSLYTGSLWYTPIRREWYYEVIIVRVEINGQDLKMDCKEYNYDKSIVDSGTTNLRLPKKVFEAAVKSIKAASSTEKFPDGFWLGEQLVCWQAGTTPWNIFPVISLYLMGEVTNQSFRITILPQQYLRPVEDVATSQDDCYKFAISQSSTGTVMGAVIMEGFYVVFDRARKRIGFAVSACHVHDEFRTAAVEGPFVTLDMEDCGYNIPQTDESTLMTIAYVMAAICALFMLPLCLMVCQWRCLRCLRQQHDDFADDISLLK
T6 sequence (P08684 whole entry): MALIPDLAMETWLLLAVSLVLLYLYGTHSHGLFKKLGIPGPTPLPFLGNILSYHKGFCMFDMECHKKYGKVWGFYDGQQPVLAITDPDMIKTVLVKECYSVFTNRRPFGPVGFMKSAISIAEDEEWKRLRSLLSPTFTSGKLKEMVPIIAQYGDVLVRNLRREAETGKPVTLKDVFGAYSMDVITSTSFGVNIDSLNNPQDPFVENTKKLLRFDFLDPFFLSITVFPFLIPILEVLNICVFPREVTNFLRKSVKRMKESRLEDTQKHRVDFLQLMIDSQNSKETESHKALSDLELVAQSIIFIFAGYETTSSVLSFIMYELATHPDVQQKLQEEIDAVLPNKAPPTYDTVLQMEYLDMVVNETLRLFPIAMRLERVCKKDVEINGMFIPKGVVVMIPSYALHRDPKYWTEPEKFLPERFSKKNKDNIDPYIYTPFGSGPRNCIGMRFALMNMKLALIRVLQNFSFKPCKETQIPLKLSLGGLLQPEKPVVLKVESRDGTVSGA
T7 sequence (P10635 whole entry): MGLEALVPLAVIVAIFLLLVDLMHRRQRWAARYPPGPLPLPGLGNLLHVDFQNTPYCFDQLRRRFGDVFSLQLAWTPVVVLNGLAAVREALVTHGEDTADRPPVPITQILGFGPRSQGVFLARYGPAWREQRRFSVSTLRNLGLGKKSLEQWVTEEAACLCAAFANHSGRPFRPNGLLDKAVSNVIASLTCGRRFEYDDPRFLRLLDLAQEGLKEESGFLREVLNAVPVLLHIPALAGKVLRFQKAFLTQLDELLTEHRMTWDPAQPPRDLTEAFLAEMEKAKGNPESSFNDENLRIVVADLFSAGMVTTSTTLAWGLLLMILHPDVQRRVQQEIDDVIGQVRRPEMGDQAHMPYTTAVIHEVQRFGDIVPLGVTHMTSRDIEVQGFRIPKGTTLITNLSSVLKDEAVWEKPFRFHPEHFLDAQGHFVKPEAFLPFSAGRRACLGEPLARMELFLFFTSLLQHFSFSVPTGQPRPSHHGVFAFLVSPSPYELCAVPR

| Structure (SMILES) | IC50 (Recombinant human BACE1) | IC50 [1] | IC50 (CYP1A2) | IC50 (CYP2C19) | solubility kinetic at 1 h (Solubility test; [3]) | solubility kinetic at 1 h (Solubility test; [4]) | hERG_3 uM_% [2] | IC50 (CYP2C9) | IC50 (CYP3A4) | solubility kinetic at 16 h (Solubility test; read-out: JP2_μM) | IC50 (CYP2D6) | remaining % (Metabolic stability test) |
| --- | --- | --- | --- | --- | --- | --- | --- | --- | --- | --- | --- | --- |
| CCOc1cnc(C(=O)Nc2ccc(F)c([C@@]3(C)N=C(N)S[C@H](C)[C@@H]3F)c2)cn1 [Compound I-84] | 12.9 nM | 2.3 nM | ≥ 20000 nM | ≥ 20000 nM | > 50 µM | 49.4 µM (≈ 20.8 µg/mL) | 28.8% | – | – | – | – | – |
| COCC(F)(F)[C@H]1OC(N)=N[C@](C)(c2cc(NC(=O)c3cnc(OC)cn3)ccc2F)[C@H]1F [Compound I-80] | 35.5 nM | 18 nM | ≥ 20000 nM | ≥ 20000 nM | > 50 µM | – | 8.9% | ≥ 10000 nM | ≥ 10000 nM | >50 µM | – | – |
| C[C@H]1SC(N)=N[C@](C)(c2cccc(NC(=O)c3ccc(F)cn3)c2)[C@H]1F [Compound I-115] | 34.3 nM | 7.2 nM | ≥ 10000 nM | ≥ 20000 nM | > 50 µM | – | – | ≥ 20000 nM | ≥ 20000 nM | >50.0 µM | ≥ 20000 nM | 78.9% |
| C[C@@H]1SC(N)=N[C@](C)(c2cc(NC(=O)c3ccc(C#N)cn3)ccc2F)[C@@H]1F [Compound I-113] | 164 nM | 40 nM | ≥ 20000 nM | ≥ 20000 nM | > 50 µM | 48.6 µM (≈ 19.5 µg/mL) | – | ≥ 20000 nM | ≥ 20000 nM | – | ≥ 20000 nM | – |
| C[C@]1(c2cc(NC(=O)c3ccc(OCF)cn3)ccc2F)N=C(N)SCC12CC(F)(F)C2 [Compound I-58] | 13.7 nM | 0.68 nM | ≥ 20000 nM | ≥ 20000 nM | > 50 µM | – | 58.6% | ≥ 20000 nM | – | >50 µM | – | – |
| COc1ccc(C(=O)Nc2ccc(F)c([C@@]3(C)N=C(N)O[C@H](C(F)(F)C4CC4)[C@@H]3F)c2)nn1 [Compound I-95] | 23.5 nM | 450 nM | ≥ 20000 nM | ≥ 20000 nM | > 50 µM | – | – | ≥ 10000 nM | ≥ 10000 nM | >50.0 µM | – | 105% |
| C[C@]1(c2cc(NC(=O)c3ccc(F)cn3)ccc2F)N=C(N)SCC12CC(F)(F)C2 [Compound I-61] | 15.4 nM | 1.3 nM | ≥ 20000 nM | ≥ 20000 nM | > 50 µM | – | – | ≥ 20000 nM | ≥ 10000 nM | >50 µM | – | 71.5% |
